Common to all, as to assay: DTP human tumour cell line panel, 48 h
The subject of assay [1] is MDA-MB-435.
In assay [2] the test system is SF-295.
Assay [3] deals with HL-60.
For assay [4], the system named is ACHN.
For assay [5], the system named is OVCAR-8.
In assay [6] the test system is COLO 205.
Assay [7] relates to HCT-15.
The subject of assay [8] is A549.
Assay [9] has as its system M14.
The test system of assay [10] is SR.
Assay [11] concerns SW-620.
The test system of assay [12] is 786-0.
Assay [13] deals with HCT-116.
Assay [14] relates to NCI-H23.
Assay [15] deals with Malme-3M.
Assay [16] relates to K562.
Assay [17] deals with SK-OV-3.
For assay [18], the system named is NCI-H522.

Experimental findings from ChEMBL document CHEMBL1201862, “PubChem BioAssay data set” (2004) are described below.

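96-well plates; 48 h exposure; 5 concentrations. Endpoints by linear interpolation between flanking doses. Not reached: highest tested concentration assigned. The concentration for 50% growth inhibition is given as GI50.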 Calls of active or inactive are those of the source. No stated cut-off is given here; in the data, active = GI50 up to about 1.1 µM and inactive = higher.

For orientation: GI50 means the concentration giving 50% growth inhibition.

For `C=CCN(c1cc(OC)c(NC(C)=O)cc1[N+](=O)[O-])S(C)(=O)=O`, the GI50 in [1], in assay [2], in assay [3], in assay [4], in assay [5] and in [6] was > 100 µM (inactive) throughout. Further, the GI50 in assay [7] was over 100 µM; in assay [8], > 100 µM (inactive); in [9], > 100 µM (inactive); in [10], > 100 µM (inactive); in assay [11] it was > 100 µM (inactive); in assay [12], > 100 µM (inactive). The GI50 in assay [13] was > 100 µM (inactive); in assay [14] it was > 100 µM (inactive); in [15], 10.1 µM (inactive); in assay [16], > 100 µM (inactive); in assay [17], > 100 µM (inactive); in [18], 0.0349 µM (active).

Take `CCCC(=O)OC1CC(n2cc(F)c(=O)[nH]c2=O)OC1COP(=O)(OCC(Cl)(Cl)Cl)OCC(Cl)(Cl)Cl` (stereo not drawn): the GI50 in assay [1] is 18.2 µM (inactive); in assay [2], 0.167 µM (active); in assay [3], 10.8 µM (inactive); in assay [4], 0.147 µM (active); in assay [5], 0.925 µM (active); in assay [6] it was 0.0614 µM (active). Moreover, the GI50 is 22.1 µM in [7]; 0.461 µM (active) in assay [8]; 2.06 µM (inactive) in [9]; 1.25 µM (inactive) in assay [10]; 19.9 µM (inactive) in assay [11]; 0.31 µM (active) in assay [12]. Also, the GI50 in assay [13] is 3.18 µM (inactive); in assay [14] it was 11 µM (inactive); in assay [15], 5.41 µM (inactive); in assay [16], > 10 µM (inactive); in [17] it was 12.4 µM (inactive); in assay [18], 5.51 µM (inactive).

Regarding `COC(=O)/C(C#N)=C(/NCCN)Nc1ccccc1`, the GI50 in assay [1], in assay [2], in assay [3], in assay [4], in assay [5] and in [6] was > 100 µM (inactive) in each case. The GI50 in assay [7] was over 100 µM; in assay [8], > 100 µM (inactive); in assay [9] it was > 100 µM (inactive); in assay [10], > 100 µM (inactive); in assay [11], > 100 µM (inactive); in assay [12] it was > 100 µM (inactive). Further, the GI50 in [13], in assay [14], in assay [15], in assay [16], in assay [17] and in [18] was > 100 µM (inactive) each time.

With `Cc1ccc2c(c1)C1(C)OC(C=CC1=O)O2` (stereo not drawn), the GI50 is 0.182 µM (active) in assay [1]; 2.79 µM (inactive) in assay [2]; 0.104 µM (active) in [3]; 0.522 µM (active) in assay [4]; 0.282 µM (active) in assay [5]; 0.384 µM (active) in assay [6]. Moreover, the GI50 in assay [7] was 0.265 µM; in assay [8] it was 3.24 µM (inactive); in assay [9], 0.316 µM (active); in assay [10], 0.106 µM (active); in assay [11] it was 0.237 µM (active); in assay [12], 0.261 µM (active). In addition, the GI50 in [13] is 0.204 µM (active); in assay [14], 0.94 µM (active); in assay [15], 0.341 µM (active); in [16], 0.147 µM (active); in assay [17] it was 3.24 µM (inactive); in [18], 0.0769 µM (active).

In the case of `Clc1ccc(CCN2CCN(CCCc3ccccc3)CC2)cc1Cl`, the GI50 was 17.3 µM (inactive) in assay [1]; 16.4 µM (inactive) in assay [2]; 15.7 µM (inactive) in assay [3]; 19.6 µM (inactive) in [4]; 16.3 µM (inactive) in [5]; 15.4 µM (inactive) in [6]. Further, the GI50 in [7] is 13.5 µM; in [8], 15.9 µM (inactive); in assay [9] it was 14.4 µM (inactive); in [10], 26.7 µM (inactive); in [11], 20 µM (inactive); in [12] it was 16.6 µM (inactive). Also, the GI50 was 15.1 µM (inactive) in assay [13]; 16.9 µM (inactive) in assay [14]; 19.1 µM (inactive) in assay [15]; 26.6 µM (inactive) in assay [16]; 19.3 µM (inactive) in assay [17]; 20.6 µM (inactive) in assay [18].

Regarding `O=C(OCCN1CCCCC1)C(c1ccccc1)C1(O)CCSCC1` (stereo not drawn), the GI50 in assay [1], in assay [2], in [3], in assay [4], in assay [5] and in assay [6] was > 100 µM (inactive) throughout. Besides, the GI50 in assay [7] is over 100 µM; in [8], > 100 µM (inactive); in assay [9] it was > 100 µM (inactive); in assay [10] it was > 100 µM (inactive); in assay [11] it was > 100 µM (inactive); in assay [12], > 100 µM (inactive). For the same compound, the GI50 in assay [13], in [14], in assay [15], in assay [16], in [17] and in assay [18] was > 100 µM (inactive) throughout.

Turning to `N#CCC1(c2ccc(Cl)cc2)NC(=O)c2ccccc21` (stereo not drawn), the GI50 in assay [1], in assay [2], in [3], in [4], in assay [5] and in assay [6] was > 100 µM (inactive) each time. Besides, the GI50 in [7] was over 100 µM; in assay [8], > 100 µM (inactive); in assay [9], > 100 µM (inactive); in assay [10], > 100 µM (inactive); in [11], > 100 µM (inactive); in assay [12], > 100 µM (inactive). For the same compound, the GI50 in [13], in assay [14], in assay [15], in [16], in [17] and in assay [18] was > 100 µM (inactive) throughout.

As to `CCOC(=O)C(NC(=O)CC(C)C)(NC(C)C)C(F)(F)F` (stereo not drawn), the GI50 in [1], in [2], in [3], in assay [4], in assay [5] and in [6] was > 100 µM (inactive) each time. For the same compound, the GI50 in [7] is over 100 µM; in assay [8], > 100 µM (inactive); in assay [9] it was > 100 µM (inactive); in [10], > 100 µM (inactive); in [11], > 100 µM (inactive); in assay [12] it was > 100 µM (inactive). The GI50 in assay [13], in assay [14], in assay [15], in assay [16], in assay [17] and in [18] was > 100 µM (inactive) in each case.

Turning to `COc1cccc(/C=C/c2cnc3ccccc3n2)c1OC`, the GI50 was 32 µM (inactive) in assay [1]; 46.1 µM (inactive) in assay [2]; 34.4 µM (inactive) in assay [3]; 50.1 µM (inactive) in assay [4]; 29.7 µM (inactive) in [5]; 48.3 µM (inactive) in [6]. The GI50 was 27.5 µM in assay [7]; 40.7 µM (inactive) in assay [8]; 46.2 µM (inactive) in assay [9]; > 100 µM (inactive) in [10]; 52.1 µM (inactive) in [11]; 39.1 µM (inactive) in assay [12]. Also, the GI50 in assay [13] was 30.1 µM (inactive); in [14], 31.9 µM (inactive); in [15], 34.5 µM (inactive); in [16], 71 µM (inactive); in assay [17], 71.6 µM (inactive); in [18], 17 µM (inactive).

On to `O=[N+]([O-])c1nccn1CCCNCCCn1ccnc1[N+](=O)[O-]`, for which the GI50 in [1], in assay [2], in assay [3], in [4], in assay [5] and in assay [6] was > 100 µM (inactive) throughout. For the same compound, the GI50 in assay [7] was over 100 µM; in [8], > 100 µM (inactive); in assay [9], > 100 µM (inactive); in [10], > 100 µM (inactive); in assay [11], > 100 µM (inactive); in [12] it was > 100 µM (inactive). The GI50 is > 100 µM (inactive) in [13]; > 100 µM (inactive) in assay [14]; 36.6 µM (inactive) in assay [15]; > 100 µM (inactive) in [16]; > 100 µM (inactive) in [17]; > 100 µM (inactive) in assay [18].

In the case of `COc1cccc2c(=O)oc(-c3ccc(C(C)(C)C)cc3)nc12`, the GI50 is 59.7 µM (inactive) in assay [1]; 69.7 µM (inactive) in [2]; 18.5 µM (inactive) in assay [3]; > 100 µM (inactive) in assay [4]; 39.7 µM (inactive) in [5]; 57 µM (inactive) in [6]. Further, the GI50 in assay [7] is 65.5 µM; in assay [8] it was 85.1 µM (inactive); in [9], 82 µM (inactive); in [10], 26.1 µM (inactive); in [11], 55.2 µM (inactive); in [12], > 100 µM (inactive). Also, the GI50 in [13] is 49.9 µM (inactive); in assay [14], > 100 µM (inactive); in assay [15] it was > 100 µM (inactive); in assay [16] it was > 100 µM (inactive); in assay [17] it was 80.9 µM (inactive); in assay [18], 30.1 µM (inactive).
